Tests used:
[1] = test system: MDA-MB-231 cells; test: MTT proliferation assay; assay type: cell-based, human; conditions: B2R shRNA knockdown MDA-MB-231 cells vs scrambled shRNA
Experimental: Cell proliferation assay on MDA-MB-231 cells was determined with colorimetric MTT as we described. Briefly, cells were seeded in a 96 wells plate at 2,000 cells/well in DMEM media supplemented with 10% FBS for 24h at 37°C. Cells were then incubated with and without the B2RAs at the indicated concentrations for the time shown. At the end of treatment period, MTT (0.25 mg/ml) was added to the cells and incubated for 1h30 at 37°C. Thereafter, the cell medium was removed, the formazan product solubilized in acidified isopropanol (100 µl of 1N HCl/anhydrous isopropanol 1:25) and the absorbance determined at 570 nm with an ELISA microplate reader (Spectra Max Plus, Molecular Devices, Sunnyvale, CA). For assessing the cytotoxicity of B2RAs and chemotherapeutic agents (carmustine, doxorubicin, carboplatin, temozolomide and paclitaxel), cells were grown to confluency in multi-well plates and exposed to starving media (DMEM without FBS) for 24h before beginning of the antagonist treatment. Cells were then incubated with MTT and treated exactly as described above. Cell viability was expressed as a percentage of optical density (OD) values obtained upon treatment relative to control.

[2] = test system: MDA-MB-231 cells; test: Western blot of cell cycle, apoptosis and p38 proteins; assay type: cell-based, human
Experimental: For western blot analysis, appropriate amount of cell lysates or membrane and nuclear fractions (25–50 µg protein) were denatured, resolved on 9–12% SDS–PAGE and electrotransferred onto PVDF membranes. Blots were blocked using 5% nonfat dry milk and probed using appropriate primary antibodies in blocking buffer overnight at 4°C.

[3] = test system: MDA-MB-231 cells; test: Anchorage-dependent clonogenic assay; assay type: cell-based, human; conditions: 1 to 100 µM (FR173657 up to 25 µM), 10-14 days
Experimental: MDA-MB-231 cells were plated at 200 cells/well in a six-well dish in 2 ml DMEM medium containing 10% FBS. […] After 10 to 14 days, colonies were fixed and stained with 0.5% methylene blue in 50% ethanol. Excess of staining solution was removed carefully with tap water and the plates were dried overnight. Colony counting and densitometric analyses (to measure total colony numbers and surface areas) were performed using the Image Pro Plus 5.1 software.

[4] = test system: MDA-MB-231 cells; test: cDNA SuperArray Human Signal Transduction Pathway Finder analysis; assay type: cell-based; conditions: 10 μM / 3h, relative to untreated controls
Description: cDNA SuperArray analysis manufacturer ’s instructions (SuperArray Bioscience). For cDNA microarray analysis, equal amounts of cRNA (3
The GEArray Q-series array of Human Signal µg) were biotinylated, then the probes were hybridized Transduction Pathway Finder (catalog OHS-014; onto the membranes containing specific genes for several SuperArray Bioscience) was used to quantify the transduction pathways. After extensive washing, specific expression of 113 genes representative of 18 signal hybridization onto the membranes was detected by transduction pathways. […] A […]
cells were incubated or not with FR173657 (10 µM) in fold change cutoff of ≥1.5 as compared to control cells DMEM for 3 hours at 37°C. At the end of treatments, cells was set to identify regulated genes. were collected, lysed and total RNA was purified using an ArrayGrade Total RNA Isolation kit according to the Supplementary Table 1: Marked gene expression changes in FR173657-treated MDA-MB-231 cells relative to untreated controls
Description GenBank acc. Symbol Fold change
NLR family, apoptosis inhibitory protein NM_004536 NAIP 1,50
Cyclin-dependent kinase inhibitor 1B (p27, Kip1) NM_004064 CDKN1B 1,70
Cyclin-dependent kinase inhibitor 2B (p15, inhibits CDK4) NM_004936 CDKN2B 1,80 Cyclin-dependent kinase inhibitor 2C (p18, inhibits CDK4) NM_078626 CDKN2C 2,20 Caudal type homeobox transcription factor 1 NM_001804 CDX1 1,80
CCAAT/enhancer binding protein (C/EBP), beta NM_005194 CEBPB 1,70 […]
Platelet/endothelial cell adhesion molecule (CD31 antigen) NM_000442 PECAM1 3,90 Nitric oxide synthase 2A (inducible, hepatocytes) NM_000625 NOS2A –1,50 […]
Overall, the data generated from the transcriptional profiling study are, in general, in good agreement with the strong anticancer activity of FR173657 observed in MDA-MB-231 cells.

[5] = target: T1, B2R endogenously expressed in the human de-endothelized umbilical veins (Homo sapiens, UniProt P30411); conditions: antagonist, reduction of BK submaximal contraction; means ± s.e.m.; ref [34]; read-out: Bioassay hUV IC50; cited from earlier work
T1 construct: B2R endogenously expressed in the human de-endothelized umbilical veins (hUV); from tissue; host or cells: human umbilical vein, de-endothelized
T1 sequence (P30411 1-391): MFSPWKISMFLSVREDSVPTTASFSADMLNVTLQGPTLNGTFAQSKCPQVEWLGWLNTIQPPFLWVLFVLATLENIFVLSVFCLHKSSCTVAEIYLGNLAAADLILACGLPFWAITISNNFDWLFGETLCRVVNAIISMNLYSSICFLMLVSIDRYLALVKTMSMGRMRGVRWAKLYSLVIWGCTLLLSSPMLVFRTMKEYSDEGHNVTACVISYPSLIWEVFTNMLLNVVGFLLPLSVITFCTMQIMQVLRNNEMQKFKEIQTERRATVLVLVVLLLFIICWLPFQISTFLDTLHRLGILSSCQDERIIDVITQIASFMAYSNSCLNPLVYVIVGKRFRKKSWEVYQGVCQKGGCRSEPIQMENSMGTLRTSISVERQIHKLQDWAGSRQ

[6] = 24h treatment, whole-cell lysates

CC(=O)Nc1ccc(/C=C/C(=O)NCC(=O)N(C)c2ccc(Cl)c(COc3cccc4ccc(C)nc34)c2Cl)cn1 [FR 173657]
cytostatic activity after B2R downregulation [1]: significantly attenuated | expression of BAD and p27Kip1 [2, 6]: increased expression | levels of MAPK and cyclin A [2, 6]: decreased the levels of MAPK and cyclin A | levels of anti-apoptotic protein XIAP [2, 6]: appeared to reduce the levels | phosphorylation of p38 ([2]; over time): significantly increased the phosphorylation | colony formation (antagonist effect) [3]: concentration-responsive clonal repression | Fold change BMP4 gene expression [4]: 1,50 fold | Fold change CCL20 gene expression [4]: 1,50 fold | Fold change CDKN1B (p27, Kip1) gene expression [4]: 1,70 fold | Fold change CDKN2B gene expression [4]: 1,80 fold | Fold change CDKN2C gene expression [4]: 2,20 fold | Fold change CDX1 gene expression [4]: 1,80 fold | Fold change CEBPB gene expression [4]: 1,70 fold | Fold change CTSD gene expression [4]: 1,60 fold | Fold change CXCL9 gene expression [4]: 1,70 fold | Fold change EGR1 gene expression [4]: 1,60 fold | Fold change HOXB1 gene expression [4]: 1,60 fold | Fold change MMP10 gene expression [4]: 3,50 fold | Fold change NAIP gene expression [4]: 1,50 fold | Fold change NOS2A gene expression [4]: –1,50 fold | Fold change PECAM1 gene expression [4]: 3,90 fold | Fold change TFRC gene expression [4]: –1,50 fold | IC50 [5]: 6 ± 0.8 nM
